{"source": "paper PMC9963287", "about": "(Viruses, 2023)", "key": {"[1]": {"parameters": "method as in earlier work", "details": "in animals; cited from earlier work"}, "SARS-CoV-2 M^pro": {"biological_target": "SARS-CoV-2 M^pro (Severe acute respiratory syndrome coronavirus 2, UniProt P0DTD1)", "assay": "In vitro FRET M^pro inhibition assay", "type": "biochemical", "details": "50 nM M^pro; for IC50: FRET assay, inhibitor 3.125-100 μM, read-out: IC50 against M^pro enzymatic activity; for inhibition at 50 µM: initial screen at 50 μM compound, read-out: inhibitory activity against M^pro"}, "M^pro [2]": {"biological_target": "T1, M^pro (Severe acute respiratory syndrome coronavirus 2, UniProt P0DTD1)", "assay": "Bio-layer interferometry binding kinetics assay", "parameters": "species or system SARS-CoV-2", "details": "BLI, 1:1 binding model, 30 °C; for Kd: KD = koff/kon"}, "M^pro [3]": {"biological_target": "T1, M^pro", "details": "at a concentration of 50 μM; cited from earlier work"}}}
{"smiles": "CC(C)CC(NC(=O)OCc1ccccc1)C(=O)NC(CC1CCNC1=O)C(O)S(=O)(=O)O", "note": "(stereo not shown) [GC376]", "values": [{"measurement": "side effects", "setting": "[1]", "result": "delayed adult teeth development"}]}
{"smiles": "O=C(CC[C@@H](C(=O)Nc1cccc([N+](=O)[O-])c1)n1cnc2ccccc2c1=O)Nc1cccc([N+](=O)[O-])c1", "note": "[G1]", "values": [{"measurement": "IC50", "setting": "SARS-CoV-2 M^pro", "result": "~20", "unit": "µM"}, {"measurement": "inhibition at 50 µM", "setting": "SARS-CoV-2 M^pro", "result": "> 50", "unit": "%"}, {"measurement": "koff", "setting": "M^pro [2]", "result": 0.00325, "unit": "s⁻¹"}, {"measurement": "kon", "setting": "M^pro [2]", "result": 125, "unit": "M⁻¹ s⁻¹"}, {"measurement": "Kd", "setting": "M^pro [2]", "result": 26, "unit": "µM"}]}
{"smiles": "COc1cccc(Nc2c(C(N)=O)cnc3c(C)cc(S(=O)(=O)c4cccc(C(=O)N(C)C)c4)cc23)c1", "note": "[GSK-256066]", "values": [{"measurement": "M^pro inhibitory activity", "setting": "M^pro [3]", "result": "more than 30%"}]}
{"smiles": "Nc1ccc(OC(=O)CC[C@@H](C(=O)Oc2ccc(N)c([N+](=O)[O-])c2)n2cnc3ccccc3c2=O)cc1[N+](=O)[O-]", "note": "[G4]", "values": [{"measurement": "IC50", "setting": "SARS-CoV-2 M^pro", "result": "~20", "unit": "µM"}, {"measurement": "inhibition at 50 µM", "setting": "SARS-CoV-2 M^pro", "result": "> 50", "unit": "%"}, {"measurement": "koff", "setting": "M^pro [2]", "result": 0.413, "unit": "s⁻¹"}, {"measurement": "kon", "setting": "M^pro [2]", "result": 16200, "unit": "M⁻¹ s⁻¹"}, {"measurement": "Kd", "setting": "M^pro [2]", "result": 25.5, "unit": "µM"}]}
{"smiles": "CC(O)(CS(=O)(=O)c1ccc(F)cc1)C(=O)Nc1ccc(C#N)c(C(F)(F)F)c1", "note": "(stereo not shown) [bicalutamide]", "values": [{"measurement": "M^pro inhibitory activity", "setting": "M^pro [3]", "result": "more than 30%"}]}
